The assay concerns human vascular endothelial cell lines. The assay is described as follows: Inhibition of radiation-induced endothelial cell transition (EndMT), phalloidin immunofluorescence staining. As to conditions: 10 uM test substance 1 hour before 10 Gy irradiation, 72 hours after irradiation, relative ratio with IR group (10 Gy alone) as 100%; for activity at 10 µM: Homo sapiens, Endothelial cell, light or radiation study. Type of assay: cell-based. The procedure:
Test substances (Examples 1 to 45) were treated with a 10 mM DMSO solution at a ratio of 1 µL per 1 mL of cell culture medium to a final concentration of 10 uM, and the test substances were treated 1 hour before irradiation on human vascular endothelial cell lines (Promocell, Germany), and then, it was irradiated at an intensity of 10 Gy. 72 hours after irradiation, the human vascular endothelial cell lines were fixed with 10% formalin, and the experiment was conducted according to the manufacturer's method using phalloidin (Invitrogen, USA) to confirm the cytoskeleton filaments that increase during fibrosis. Phalloidin is a protein that binds to the actin of cytoskeleton filaments, and phalloidin conjugated with FITC fluorescent substance made the cytoskeleton filaments appear green when observed under a microscope.
After treatment with the test substance, the area, length and density of phalloidin were measured by using a confocal microscope, and the relative ratio was expressed with the irradiated group (IR group) that was irradiated with 10 Gy alone as 100% (Table 1).

Like-named read-outs stand apart in the source and are kept apart here. Some results are limits rather than exact numbers.

Take `N#Cc1cccc2c1CC[C@H]2Nc1nc(Cl)nc2c1ncn2[C@@H]1SC[C@@H](O)[C@H]1O` [Example 24, (1R)-1-[[2-chloro-9-[(2R,3R,4S)-3,4-dihydroxytetrahydrothiophen-2-yl]purin-6-yl]amino]indane-4-carbonitrile]: the activity at 10 µM is, setting by setting: (read-out: Palloidin Area) 50 to 80%; (read-out: Palloidin Intensity) 50 to 80%; (read-out: Palloidin Length) 50 to 80%.

Regarding `NC(=O)c1cccc2c1CC[C@H]2Nc1nc(Cl)nc2c1ncn2[C@@H]1SC[C@@H](O)[C@H]1O` [Example 25, (R)-1-((2-chloro-9-((2R,3R,4S)-3,4-dihydroxytetrahydrothiophen-2-yl)-9H-purin-6-yl)amino)-2,3-dihydro-1H-indene-4-carboxamide], the activity at 10 µM (read-out: Palloidin Area) was above 80%, the activity at 10 µM (read-out: Palloidin Intensity) is above 80% and the activity at 10 µM (read-out: Palloidin Length) is above 80%.

With `O[C@@H]1[C@H](O)CS[C@H]1n1cnc2c(N[C@@H]3CCc4cccc(Br)c43)nc(Cl)nc21` [Example 26, (2R,3R,4S)-2-[2-chloro-6-[[(1R)-7-bromoindan-1-yl]amino]purin-9-yl]tetrahydrothiophene-3,4-diol], the activity at 10 µM by setting is: (read-out: Palloidin Area) 20 to 50%; (read-out: Palloidin Intensity) 50 to 80%; (read-out: Palloidin Length) 50 to 80%.

On to `Cc1ccc2c(c1)CC[C@H]2Nc1nc(Cl)nc2c1ncn2[C@@H]1SC[C@@H](O)[C@H]1O` [Example 27, (2R,3R,4S)-2-[2-chloro-6-[[(1R)-5-methylindan-1-yl]amino]purin-9-yl]tetrahydrothiophene-3,4-diol], for which the activity at 10 µM (read-out: Palloidin Area) is above 80%, the activity at 10 µM (read-out: Palloidin Intensity) is above 80% and the activity at 10 µM (read-out: Palloidin Length) is above 80%.

As to `O[C@@H]1[C@H](O)CS[C@H]1n1cnc2c(N[C@@H]3CCc4cc(C(F)(F)F)ccc43)nc(Cl)nc21` [Example 28, (2R,3R,4S)-2-[2-chloro-6-[[(1R)-5-(trifluoromethyl)indan-1-yl]amino]purin-9-yl]tetrahydrothiophene-3,4-diol], the activity at 10 µM (read-out: Palloidin Area) lay within 50 to 80%, the activity at 10 µM (read-out: Palloidin Intensity) lay within 50 to 80% and the activity at 10 µM (read-out: Palloidin Length) was above 80%.

For `N#Cc1ccc2c(c1)CC[C@H]2Nc1nc(Cl)nc2c1ncn2[C@@H]1SC[C@@H](O)[C@H]1O` [Example 29, (1R)-1-[[2-chloro-9-[(2R,3R,4S)-3,4-dihydroxytetrahydrothiophen-2-yl]purin-6-yl]amino]indane-5-carbonitrile], the activity at 10 µM by setting is: (read-out: Palloidin Area) 50 to 80%; (read-out: Palloidin Intensity) 50 to 80%; (read-out: Palloidin Length) above 80%.

For the compound `COC(=O)c1cccc2c1CC[C@H]2Nc1nc(Cl)nc2c1ncn2[C@@H]1SC[C@@H](O)[C@H]1O` [Example 30, Methyl (R)-1-((2-chloro-9-((2R,3R,4S)-3,4-dihydroxytetrahydrothiophen-2-yl)-9H-purin-6-yl)amino)-2,3-dihydro-1H-indene-4-carboxylate], the activity at 10 µM was above 80% (read-out: Palloidin Area), above 80% (read-out: Palloidin Intensity) and above 80% (read-out: Palloidin Length).

On to `COC(=O)c1ccc2c(c1)CC[C@H]2Nc1nc(Cl)nc2c1ncn2[C@@H]1SC[C@@H](O)[C@H]1O` [Example 31, Methyl (R)-1-((2-chloro-9-((2R,3R,4S)-3,4-dihydroxytetrahydrothiophen-2-yl)-9H-purin-6-yl)amino)-2,3-dihydro-1H-indene-5-carboxylate], for which the activity at 10 µM reads like this: (read-out: Palloidin Area) above 80%; (read-out: Palloidin Intensity) above 80%; (read-out: Palloidin Length) above 80%.

Turning to `O=C(O)c1cccc2c1CC[C@H]2Nc1nc(Cl)nc2c1ncn2[C@@H]1SC[C@@H](O)[C@H]1O` [Example 32, (R)-1-((2-chloro-9-((2R,3R,4S)-3,4-dihydroxytetrahydrothiophen-2-yl)-9H-purin-6-yl)amino)-2,3-dihydro-1H-indene-4-carboxylic acid], the activity at 10 µM is above 80% (read-out: Palloidin Area), above 80% (read-out: Palloidin Intensity) and above 80% (read-out: Palloidin Length).

For `O=C(O)c1ccc2c(c1)CC[C@H]2Nc1nc(Cl)nc2c1ncn2[C@@H]1SC[C@@H](O)[C@H]1O` [Example 33, (R)-1-((2-chloro-9-((2R,3R,4S)-3,4-dihydroxytetrahydrothiophen-2-yl)-9H-purin-6-yl)amino)-2,3-dihydro-1H-indene-5-carboxylic acid], the activity at 10 µM (read-out: Palloidin Area) is above 80%, the activity at 10 µM (read-out: Palloidin Intensity) was above 80% and the activity at 10 µM (read-out: Palloidin Length) is above 80%.

Consider `NC(=O)c1ccc2c(c1)CC[C@H]2Nc1nc(Cl)nc2c1ncn2[C@@H]1SC[C@@H](O)[C@H]1O` [Example 34, (R)-1-((2-chloro-9-((2R,3R,4S)-3,4-dihydroxytetrahydrothiophen-2-yl)-9H-purin-6-yl)amino)-2,3-dihydro-1H-indene-5-carboxamide], for which the “Palloidin Length” value is reported as “+ +”. For the same compound, where the note is “read-out: Palloidin Area”, the activity at 10 µM is above 80%. Further, where the note is “read-out: Palloidin Intensity”, the activity at 10 µM is above 80%.

Take `O[C@@H]1[C@H](O)CS[C@H]1n1cnc2c(NC3CCc4ccccc4C3)nc(Cl)nc21` (stereo partly drawn) [Example 35, (2R,3R,4S)-2-(2-chloro-6-((1,2,3,4-tetrahydronaphthalen-2-yl)amino)-9H-purin-9-yl)tetrahydrothiophene-3,4-diol]: the activity at 10 µM is above 80% (read-out: Palloidin Area), above 80% (read-out: Palloidin Intensity) and above 80% (read-out: Palloidin Length).

With `O[C@@H]1[C@H](O)CS[C@H]1n1cnc2c(N[C@H]3CCc4ccccc4C3)nc(Cl)nc21` [Example 36, (2R,3R,4S)-2-(2-chloro-6-(((S)-1,2,3,4-tetrahydronaphthalen-2-yl)amino)-9H-purin-9-yl)tetrahydrothiophene-3,4-diol], the activity at 10 µM is, setting by setting: (read-out: Palloidin Area) above 80%; (read-out: Palloidin Intensity) above 80%; (read-out: Palloidin Length) above 80%.

As to `O[C@@H]1[C@H](O)CS[C@H]1n1cnc2c(N[C@@H]3CCc4ccccc4C3)nc(Cl)nc21` [Example 37, (2R,3R,4S)-2-(2-chloro-6-(((R)-1,2,3,4-tetrahydronaphthalen-2-yl)amino)-9H-purin-9-yl)tetrahydrothiophene-3,4-diol], the activity at 10 µM was 50 to 80% (read-out: Palloidin Area), 50 to 80% (read-out: Palloidin Intensity) and above 80% (read-out: Palloidin Length).

For `O[C@@H]1[C@H](O)CS[C@H]1n1cnc2c(NC3CCCc4ccccc43)nc(Cl)nc21` (stereo partly drawn) [Example 38, (2R,3R,4S)-2-(2-chloro-6-((1,2,3,4-tetrahydronaphthalen-1-yl)amino)-9H-purin-9-yl)tetrahydrothiophene-3,4-diol], the activity at 10 µM is above 80% (read-out: Palloidin Area), above 80% (read-out: Palloidin Intensity) and above 80% (read-out: Palloidin Length).

Consider `O[C@@H]1[C@H](O)CS[C@H]1n1cnc2c(N[C@@H]3CCCc4ccccc43)nc(Cl)nc21` [Example 39, (2R,3R,4S)-2-(2-chloro-6-(((R)-1,2,3,4-tetrahydronaphthalen-1-yl)amino)-9H-purin-9-yl)tetrahydrothiophene-3,4-diol], for which the activity at 10 µM was above 80% (read-out: Palloidin Area), above 80% (read-out: Palloidin Intensity) and above 80% (read-out: Palloidin Length).

Regarding `O[C@@H]1[C@H](O)CS[C@H]1n1cnc2c(N[C@H]3CCCc4ccccc43)nc(Cl)nc21` [Example 40, (2R,3R,4S)-2-(2-chloro-6-(((S)-1,2,3,4-tetrahydronaphthalen-1-yl)amino)-9H-purin-9-yl)tetrahydrothiophene-3,4-diol], the activity at 10 µM (read-out: Palloidin Area) was above 80%, the activity at 10 µM (read-out: Palloidin Intensity) is above 80% and the activity at 10 µM (read-out: Palloidin Length) is above 80%.

Turning to `O[C@@H]1[C@H](O)CS[C@H]1n1cnc2c(N[C@@H]3Cc4ccccc43)nc(Cl)nc21` [Example 41, (2R,3R,4S)-2-(6-(((R)-bicyclo[4.2.0]octa-1(6),2,4-trien-7-yl)amino)-2-chloro-9H-purin-9-yl)tetrahydrothiophene-3,4-diol], the activity at 10 µM was above 80% (read-out: Palloidin Area), 50 to 80% (read-out: Palloidin Intensity) and above 80% (read-out: Palloidin Length).

Turning to `O[C@@H]1[C@H](O)CS[C@H]1n1cnc2c(NC3CCCCc4ccccc43)nc(Cl)nc21` (stereo partly drawn) [Example 42, (2R,3R,4S)-2-(2-chloro-6-((6,7,8,9-tetrahydro-5H-benzo[7]annulen-5-yl)amino)-9H-purin-9-yl)tetrahydrothiophene-3,4-diol], the activity at 10 µM reads like this: (read-out: Palloidin Area) above 80%; (read-out: Palloidin Intensity) above 80%; (read-out: Palloidin Length) above 80%.

With `O[C@@H]1[C@H](O)CS[C@H]1n1cnc2c(NC3CCc4ccccc4CC3)nc(Cl)nc21` [Example 43, (2R,3R,4S)-2-(2-chloro-6-((6,7,8,9-tetrahydro-5H-benzo[7]annulen-7-yl)amino)-9H-purin-9-yl)tetrahydrothiophene-3,4-diol], the activity at 10 µM reads like this: (read-out: Palloidin Area) above 80%; (read-out: Palloidin Intensity) above 80%; (read-out: Palloidin Length) above 80%.

As for `O[C@@H]1[C@H](O)CS[C@H]1n1cnc2c(N[C@@H]3CCc4ccccc43)nc(I)nc21` [Example 44, (2R,3R,4S)-2-(6-(((R)-2,3-dihydro-1H-inden-1-yl)amino)-2-iodo-9H-purin-9-yl)tetrahydrothiophene-3,4-diol], the activity at 10 µM (read-out: Palloidin Area) was 20 to 50%, the activity at 10 µM (read-out: Palloidin Intensity) was in the range of 20 to 50% and the activity at 10 µM (read-out: Palloidin Length) fell in the range of 20 to 50%.

For the origin of these results see EP4685149A1, “NOVEL COMPOUND AS ENDOTHELIAL TO MESENCHYMAL TRANSITION (ENDMT) INHIBITOR, AND PHARMACEUTICAL COMPOSITION COMPRISING SAME” (Korea Institute of Radiological & Medical Sciences, priority 2023, dated 2024).
